# Patent US20260216218A1, “CANNABINOID COMPOSITIONS, AND USES THEREOF IN TREATMENT OF NEURODEGENERATIVE DISEASES OR DISORDERS AND CANCERS” (Biopharmaceutical Research Company, priority 2023, published 2026)
# Test system: BR5270 transgenic Caenorhabditis elegans strain
# Experiment: Survival (lifespan) in the preclinical Tau C. elegans model
# Assay type: in vivo
# Details: for Survival of C. elegans: 40 μM; for % Alive: BR5270, 40 μM
# Experimental: Many neurodegenerative diseases and conditions associated with neuronal insult are characterized by intracellular aggregates of the microtubule associated protein Tau. […] Due to the significant impact on lifespan and locomotion defect produced by this model, time/cost-effective and high throughput acquisition of data, the C. elegans model of tauopathy serves as an advantageous screening tool for the discovery of novel modulators of neurodegeneration.
# Cannabinoid botanical drug substances (20 μM, 40 μM, 80 μM) were prepared in accordance with the protocol described in Example 1 above. The exemplary cannabinoid botanical drug substance used in the study of this example includes CBD, CBG and THC present as the major components in a ratio of 50:20:1.
# The effect of the two different complex botanical mixtures described above were compared to the comparative control, cannabidiol (40 μM) and a no treatment negative control in the BR5270 transgenic strain. Additional no-treatment negative control and healthspan extension positive control (cannabidiol 40 μM) in wild-type arms served as added comparators. All examinations were performed in triplicate. The impact of three doses of each compound on animal survival and activity levels were examined on days 4, 8, 12, and 16 of animal life. These time points represent the first day of adulthood, early-, mid-, and late-life periods in the C. elegans lifespan.
compound,measurement,setting,value
"C=C(C)[C@@H]1CCC(C)=C[C@H]1c1c(O)cc(CCCCC)cc1O [CBD, cannabidiol]",Survival of C. elegans,Day 12 (Table 1b summary),39
same,Survival of C. elegans,Day 16 (Table 1b summary),10
same,% Alive,day 4 of animal life,100%
same,% Alive,day 8 of animal life,73.17%
same,% Alive,day 12 of animal life,39.39%
same,% Alive,day 16 of animal life,9.738%
